Results published in patent publication US12410171B2, “Tropomyosin receptor kinase (TRK) degradation compounds and methods of use” (Cullgen (Shanghai), Inc., priority 2020, dated 2025).
Read-outs that look alike come from different tables or passages of the source.

Tested on: KM12 cells
Assay: KM12 cell viability (CellTiter-Glo)
Assay type: cell-based
Conditions: Homo sapiens, 72 h, KM12 cell viability, CellTiter-Glo, read-out: IC50
Outline: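 Three-day exposure of KM12 cells (5000/well, RPMI 1640 with 10% FBS, 37 °C, 5% CO2) to compound dilution series, 3-fold over 8 or 11 points (top 1000 nM in the 8-point format) or 2-fold over 12. CellTiter-Glo readout, with IC50 fitted by nonlinear least-squares regression.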

[1] = 11-point 3-fold serial dilution, 3 days

Structure (SMILES) | IC50 [1] [µM] | IC50 (three days treatment) [µM]
COc1ccc(COc2ccc(Cn3c(N)nc4cc(-c5cnn(CC(=O)NCCOCCOCCOCCOCCOCCNc6cccc7c6C(=O)N(C6CCC(=O)NC6=O)C7=O)c5)cnc43)cc2OC)cc1 (stereo not shown) [CPD-506, 2-(4-(2-amino-3-(3-methoxy-4-((4-methoxybenzyl)oxy)benzyl)-3H-imidazo[4,5-b]pyridin-6-yl)-1H-pyrazol-1-yl)-N-(17-((2-(2,6-dioxopiperidin-3-yl)-1,3-dioxoisoindolin-4-yl)amino)-3,6,9,12,15-pentaoxaheptadecyl)acetamide] | 0.204 | 
COc1ccc(COc2ccc(Cn3c(N)nc4cc(-c5cnn(CC(=O)NCCOCCOCCC(=O)N[C@H](C(=O)N6C[C@H](O)C[C@H]6C(=O)NCc6ccc(-c7scnc7C)cc6)C(C)(C)C)c5)cnc43)cc2OC)cc1 [CPD-513, (2S,4R)-1-((S)-1-(4-(2-amino-3-(3-methoxy-4-((4-methoxybenzyl)oxy)benzyl)-3H-imidazo[4,5-b]pyridin-6-yl)-1H-pyrazol-1-yl)-14-(tert-butyl)-2,12-dioxo-6,9-dioxa-3,13-diazapentadecan-15-oyl)-4-hydroxy-N-(4-(4-methylthiazol-5-yl)benzyl)pyrrolidine-2-carboxamide] | 0.261 | 
Cc1nc2cccc(N3CC(CCN4CCN(c5cccc(-c6cnc7ccc(N8CCC[C@@H]8c8cccc(F)c8)nn67)n5)CC4)C3)c2c(=O)n1C1CCC(=O)NC1=O (stereo partly drawn) [TR-307, 3-(5˜ (3-(2-(4-(6-(6-((R)-2-(3-Fluorophenyl)pyrrolidin-1-yl)imidazo[1,2-b]pyridazin-3-yl)pyridin-2-yl)piperazin-1-yl)ethyl)azetidin-1-yl)-2-methyl-4-oxoquinazolin-3 (4H)-yl)piperidine-2,6-dione] |  | 0.0127
Cc1ncsc1-c1ccc(CNC(=O)[C@@H]2C[C@@H](O)CN2C(=O)[C@@H](NC(=O)CCOCCOCCOCCOCCOCCC(=O)N2CCC(Nc3cccc(C(=O)Nc4cnn5ccc(N6CCC[C@@H]6c6cc(F)ccc6F)nc45)n3)CC2)C(C)(C)C)cc1 [CPD-469, N-(5-((R)-2-(2,5-difluorophenyl)pyrrolidin-1-yl)pyrazolo[1,5-a]pyrimidin-3-yl)-6-((1-((S)-21-((2S,4R)-4-hydroxy-2-((4-(4-methylthiazol-5-yl)benzyl)carbamoyl)pyrrolidine-1-carbonyl)-22,22-dimethyl-19-oxo-4,7,10,13,16-pentaoxa-20-azatricosanoyl)piperidin-4-yl)amino)picolinamide] | > 1 | 
Cc1ncsc1-c1ccc(CNC(=O)[C@@H]2C[C@@H](O)CN2C(=O)[C@@H](NC(=O)CCC(=O)N2CCC(Nc3cccc(C(=O)Nc4cnn5ccc(N6CCC[C@@H]6c6cc(F)ccc6F)nc45)n3)CC2)C(C)(C)C)cc1 [CPD-461, N-(5-((R)-2-(2,5-difluorophenyl)pyrrolidin-1-yl)pyrazolo[1,2-a]pyrimidin-3-yl)-6-((1-(4-(((S)-1-((2S,4R)-4-hydroxy-2-((4-(4-methylthiazol-5-yl)benzyl)carbamoyl)pyrrolidin-1-yl)-3,3-dimethyl-1-oxobutan-2-yl)amino)-4-oxobutanoyl)piperidin-4-yl)amino)picolinamide] | > 1 | 
Cc1ncsc1-c1ccc(CNC(=O)[C@@H]2C[C@@H](O)CN2C(=O)[C@@H](NC(=O)CCOCCC(=O)N2CCN(Cc3ccc(NC(=O)c4coc(N5CCOCC5)n4)c(N4CCC(C(N)=O)CC4)c3)CC2)C(C)(C)C)cc1 [CPD-494] | > 10 | 
O=C1CCC(n2c(=O)n(CCCN3CCN(c4ccc(C(=O)Nc5n[nH]c6ccc(Cc7cc(F)cc(F)c7)cc56)c(NC5CCOCC5)c4)CC3)c3ccccc32)C(=O)N1 (stereo not drawn) [TR-311, N—(S-(3,5-Difluorobenzyl)-1H-indazol-3-yl)-4-(4-(3-(3-(2,6-dioxopiperidin-3-yl)-2-oxo-2,3-dihydro-1H-benzo[d]imidazol-1-yl)propyl)piperazin-1-yl)-2˜ ((tetrahydro-2H-pyran-4-yl)amino)benzamide] |  | 0.0148
O=C1CCC(n2c(=O)n(CCCN3CCN(c4cccc(-c5cnc6ccc(N7CCC[C@@H]7c7cccc(F)c7)cn56)n4)CC3)c3ccccc32)C(=O)N1 (stereo partly drawn) [TR-243, 3-(3-(3-(4-(6-(6-((R)-2-(3-Fluorophenyl)pyrrolidin-1-yl)imidazo[1,2-a]pyridin-3-yl)pyridin-2-yl)piperazin-1-yl)propyl)-2-oxo-2,3-dihydro-1H-benzo[d]imidazol-1-yl)piperidine-2,6-dione] |  | > 0.5
NC(=O)C1CCN(c2cc(CN3CCN(C(=O)CCOCCOCCOCCOCCNc4cccc5c4C(=O)N(C4CCC(=O)NC4=O)C5=O)CC3)ccc2NC(=O)c2coc(N3CCOCC3)n2)CC1 (stereo not shown) [CPD-488, N-(2-(4-carbamoylpiperidin-1-yl)-4-((4-(1-((2-(2,6-dioxopiperidin-3-yl)-1,3-dioxoisoindolin-4-yl)amino)-3,6,9,12-tetraoxapentadecan-15-oyl)piperazin-1-yl)methyl)phenyl)-2-morpholinooxazole-4-carboxamide] | 0.147 | 
O=C1CCC(N2C(=O)c3ccc(N4CC5(CCC(N6CCN(c7ccc(C(=O)Nc8n[nH]c9ccc(Cc%10cc(F)cc(F)c%10)cc89)c(NC8CCOCC8)c7)CC6)C5)C4)cc3C2=O)C(=O)N1 (stereo not shown) [TR-291, N-(5-(3,5˜Difluorobenzyl)-1H-indazol-3-yl)-4-(4-(2-(2-(2,6-dioxopiperidin-3-yl)-1,3-dioxoisoindolin-5-yl)-2-azaspiro[3.4]octan-6-yl)piperazin-1-yl)-2-((tetrahydro-2H-pyran˜4-yl)amino)benzamide] |  | 0.446
Cc1ncsc1-c1ccc(CNC(=O)[C@@H]2C[C@@H](O)CN2C(=O)[C@@H](NC(=O)CCCCCCCCC(=O)N2CCC(Nc3cccc(C(=O)Nc4cnn5ccc(N6CCC[C@@H]6c6cc(F)ccc6F)nc45)n3)CC2)C(C)(C)C)cc1 [CPD-464, N-(5-((R)-2-(2,5-difluorophenyl)pyrrolidin-1-yl)pyrazolo[1,5-a]pyrimidin-3-yl)-6-((1-(10-(((S)-1-((2S,4R)-4-hydroxy-2-((4-(4-methylthiazol-5-yl)benzyl)carbamoyl)pyrrolidin-1-yl)-3,3-dimethyl-1-oxobutan-2-yl)amino)-10-oxodecanoyl)piperidin-4-yl)amino)picolinamide] | 0.087 | 
COc1ccc(COc2ccc(Cn3c(N)nc4cc(-c5cnn(CC(=O)NCCOCCOCCOCCOCCC(=O)N[C@H](C(=O)N6C[C@H](O)C[C@H]6C(=O)NCc6ccc(-c7scnc7C)cc6)C(C)(C)C)c5)cnc43)cc2OC)cc1 [CPD-515, (2S,4R)-1-((S)-1-(4-(2-amino-3-(3-methoxy-4-((4-methoxybenzyl)oxy)benzyl)-3H-imidazo[4,5-b]pyridin-6-yl)-1H-pyrazol-1-yl)-20-(tert-butyl)-2,18-dioxo-6,9,12,15-tetraoxa-3,19-diazahenicosan-21-oyl)-4-hydroxy-N-(4-(4-methylthiazol-5-yl)benzyl)pyrrolidine-2-carboxamide] | 0.343 | 
O=C1CCC(N2Cc3ccc(OCCN4CCN(c5cccc(-c6cnc7ccc(N8CCC[C@@H]8c8cccc(F)c8)nn67)n5)CC4)cc3C2=O)C(=O)N1 (stereo partly drawn) [TR-201, 3-(6-(2-(4-(6-(6-((R)-2-(3-fluorophenyl)pyrrolidin-1-yl)imidazo[1,2-b]pyridazin-3-yl)pyridin-2-yl)piperazin-1-yl)ethoxy)-1-oxoisoindolin-2-yl)piperidine-2,6-dione] |  | > 0.5
